# Where two headings read alike, the source gives them in different places.
# How the values were obtained:
# BxPC3 = assay: Alamar Blue cell proliferation assay, BxPC3; format: cell-based; settings: Homo sapiens
# Description: (§1) A representative cell-proliferation assay protocol using Alamar Blue dye (stored at 4° C., use 20 ul per well) is described hereafter.
# (§2) a. Split and trypsinize cells.
# (§3) b. Count cells using hemocytometer.
# (§4) c. Plate 4,000-5,000 cells per well in 100 μl of medium and seed into a 96-well plate according to the following plate layout. Add cell culture medium only to wells B10 to B12. Wells B1 to B9 have cells but no compound added.
# (§5) d. Add 100 μl of 2× drug dilution to each well in a concentration shown in the plate layout above. At the same time, add 100 μl of media into the control wells (wells B10 to B12). Total volume is 200 μl/well.
# (§6) e. Incubate four (4) days at 37° C., 5% CO2 in a humidified incubator.
# (§7) f. Add 20 μl Alamar Blue reagent to each well.
# (§8) g. Incubate for four (4) hours at 37° C., 5% CO2 in a humidified incubator.
# (§9) h. Record fluorescence at an excitation wavelength of 544 nm and emission wavelength of 590 nm using a microplate reader.
# (§10) In the assays, cells are cultured with a test compound for approximately four days, the dye is then added to the cells and fluorescence of […] dye is detected after approximately four hours. Different types of cells can be utilized in the assays (e.g., HCT-116 human colorectal carcinoma cells, PC-3 human prostatic cancer cells and MiaPaca human pancreatic carcinoma cells).
# SUM-149PT = assay: Alamar Blue cell proliferation assay, SUM-149PT; format: cell-based; settings: Homo sapiens, SUM149PT
# Description: as §1, §2, §3, §4, §5, §6, §7, §8, §9, §10
# recombinant PIM-1 = recombinant PIM-1 (Homo sapiens, UniProt P11309); assay: PIM-1 assay (33P-ATP filter plate); format: biochemical; settings: Table 5; read-out: PIM1: IC50
# Description: The following procedure was used to assay the PIM-1 kinase activity of compounds of the invention. Other methods for assaying PIM-1 and other PIM kinases, as well as methods to assay for activity against the various kinases are known in the art.
# In a final reaction volume of 50 ul, recombinant PIM-1 (1 ng) was incubated with 12 mM MOPS pH 7.0, 0.4 mM EDTA, glycerol 1%, brij 35 0.002%, 2-mercaptoethanol 0.02%, BSA 0.2 mg/ml, 100 uM KKRNRTLTK, 10 mM MgAcetate, 15 uM ATP, [γ-^33P-ATP] (specific activity approx. 500 cpm/pmol), DMSO 4% and test inhibitor compound at the required concentration. The reaction was initiated by the addition of the Magnesium ATP mixture. After 40 min incubation at 23° C., the reactions were quenched by the addition of 100 ul 0.75% Phosphoric acid, and the labeled peptide collected by filtration through a phosphocellulose filter plate. The plate was washed 4 times with 0.075% phosphoric acid (100 ul per well) and then, after the addition of scintillation fluid (20 ul per well), the counts were measured by a scintillation counter.
# MV-4-11 = assay: Alamar Blue cell proliferation assay, MV-4-11; format: cell-based; settings: Homo sapiens, MV4-11, MV-4-11, Table 5, read-out: AB: MV-4-11 IC50
# Description: as §1, §2, §3, §4, §5, §6, §7, §8, §9, §10
# K-562 = assay: Alamar Blue cell proliferation assay, K-562; format: cell-based; settings: Homo sapiens, K562, K-562, Table 5, read-out: AB: K-562 IC50
# Description: as §1, §2, §3, §4, §5, §6, §7, §8, §9, §10
# recombinant human CK2 = target: T1, recombinant human CK2 (Homo sapiens, UniProt P68400); assay: CK2 assay (cell-free, 33P-ATP filter plate); format: biochemical
# T1 construct: purchased Upstate
# Description: Modulatory activity of compounds described herein was assessed in vitro in cell-free CK2 assays by the following method.
# Test compounds in aqueous solution were added at a volume of 10 microliters, to a reaction mixture comprising 10 microliters Assay Dilution Buffer (ADB; 20 mM MOPS, pH 7.2, 25 mM beta-glycerolphosphate, 5 mM EGTA, 1 mM sodium orthovanadate and 1 mM dithiothreitol), 10 microliters of substrate peptide (RRRDDDSDDD, dissolved in ADB at a concentration of 1 mM), 10 microliters of recombinant human CK2 (25 ng dissolved in ADB; Upstate). Reactions were initiated by the addition of 10 microliters of ATP Solution (90% 75 mM MgCl2, 75 micromolar ATP dissolved in ADB; 10% [γ-^33P]ATP (stock 1 mCi/100 μl; 3000 Ci/mmol (Perkin Elmer) and maintained for 10 minutes at 30 degrees C. The reactions were quenched with 100 microliters of 0.75% phosphoric acid, then transferred to and filtered through a phosphocellulose filter plate (Millipore). After washing each well 5 times with 0.75% phosphoric acid, the plate was dried under vacuum for 5 min and, following the addition of 15 ul of scintillation fluid to each well, the residual radioactivity was measured using a Wallac luminescence counter.
# MDAMB453 = assay: Alamar Blue cell proliferation assay, MDAMB453; format: cell-based; settings: Homo sapiens
# Description: as §1, §2, §3, §4, §5, §6, §7, §8, §9, §10
# recombinant human PIM2 = recombinant human PIM2 (Homo sapiens, UniProt Q9P1W9); assay: PIM-2 assay (33P-ATP filter plate); format: biochemical; settings: for IC50: Table 5; for inhibition at 2.5 µM: Table 6, read-out: PIM2: % inh @ 2.5 uM
# Description: PIM-2 Assay Method: Test compounds dissolved and diluted in DMSO (2 μl) were added to a reaction mixture comprising 10 μl of 5× Reaction Buffer (40 mM MOPS pH 7.0, 5 mM EDTA), 10 μl of recombinant human PIM2 solution (4 ng PIM-2 dissolved in dilution buffer (20 mM MOPS pH 7.0; EDTA 1 mM; 5% Glycerol; 0.01% Brij 35; […]; […] 2-mercaptoethanol; 1 mg/ml BSA)) and 8 ul of water. Reactions were initiated by the addition of 10 ul of ATP Solution (49% (15 mM MgCl2; 75 uM ATP) 1% ([γ-^33P]ATP: Stock 1 mCi/1000; 3000Ci/mmol (Perkin Elmer)) and 10 ul of substrate peptide solution (RSRSSYPAGT, dissolved in water at a concentration of 1 mM), Reactions were maintained for 10 min at 30° C. The reactions were quenched with 100 ul of 0.75% Phosphoric acid, then transferred to and filtered through a Phosphocellulose filter plate (Millipore, MSPH-N6B-50). After washing each well 4 times with 0.75% Phosphoric acid, scintillation fluid (20 uL) was added to each well and the residual radioactivity was measured using a Wallac luminescence counter.
# [1] = tested on: HCT-116 human colorectal carcinoma cells; assay: Alamar Blue cell proliferation assay, HCT-116; format: cell-based; settings: HCT-116, Table 1, read-out: AB: HCT-116 IC50
# Description: as §1, §2, §3, §4, §5, §6, §7, §8, §9, §10
# [2] = BXPC-3, BxPC3, Table 5, read-out: AB: BxPC3 IC50
# [3] = Table 5, read-out: AB: SUM-149PT IC50
# [4] = MDA-MB-453, MDAMB453, Table 5, read-out: AB: MDAMB453 IC50
# [5] = BXPC-3, BxPC3, Table 6, read-out: AB: BxPC3 IC50
# [6] = Table 6, read-out: AB: SUM-149PT IC50
# [7] = MDA-MB-453, MDAMB453, Table 6, read-out: AB: MDAMB453 IC50
# Chain of recombinant PIM-1 (P11309 whole entry): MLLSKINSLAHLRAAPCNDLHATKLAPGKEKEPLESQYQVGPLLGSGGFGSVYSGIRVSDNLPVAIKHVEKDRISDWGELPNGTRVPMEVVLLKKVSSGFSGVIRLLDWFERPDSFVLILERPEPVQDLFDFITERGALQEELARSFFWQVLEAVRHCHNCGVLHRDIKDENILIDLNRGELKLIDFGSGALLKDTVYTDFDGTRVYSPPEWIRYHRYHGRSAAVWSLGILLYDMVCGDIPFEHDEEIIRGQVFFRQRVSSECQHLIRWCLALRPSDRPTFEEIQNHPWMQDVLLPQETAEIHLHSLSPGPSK
# T1 sequence (P68400 whole entry): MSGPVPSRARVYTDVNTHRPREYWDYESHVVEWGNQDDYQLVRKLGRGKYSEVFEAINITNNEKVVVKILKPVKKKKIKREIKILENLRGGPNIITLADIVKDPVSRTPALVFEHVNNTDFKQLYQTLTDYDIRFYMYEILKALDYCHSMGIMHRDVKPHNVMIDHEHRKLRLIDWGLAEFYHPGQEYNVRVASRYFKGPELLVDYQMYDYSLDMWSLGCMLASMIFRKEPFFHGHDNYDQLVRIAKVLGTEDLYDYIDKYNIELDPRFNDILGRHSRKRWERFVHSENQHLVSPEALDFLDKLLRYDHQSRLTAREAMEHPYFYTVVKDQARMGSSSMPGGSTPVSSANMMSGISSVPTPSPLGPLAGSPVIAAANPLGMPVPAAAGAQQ
# T1 sequence (P67870 whole entry partner): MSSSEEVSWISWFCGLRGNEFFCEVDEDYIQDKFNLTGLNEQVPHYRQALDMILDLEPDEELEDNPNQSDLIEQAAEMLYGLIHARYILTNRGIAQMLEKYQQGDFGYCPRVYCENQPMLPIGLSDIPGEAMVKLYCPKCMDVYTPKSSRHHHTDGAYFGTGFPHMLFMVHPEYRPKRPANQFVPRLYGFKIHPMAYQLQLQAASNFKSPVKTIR
# Chain of recombinant human PIM2 (Q9P1W9 whole entry): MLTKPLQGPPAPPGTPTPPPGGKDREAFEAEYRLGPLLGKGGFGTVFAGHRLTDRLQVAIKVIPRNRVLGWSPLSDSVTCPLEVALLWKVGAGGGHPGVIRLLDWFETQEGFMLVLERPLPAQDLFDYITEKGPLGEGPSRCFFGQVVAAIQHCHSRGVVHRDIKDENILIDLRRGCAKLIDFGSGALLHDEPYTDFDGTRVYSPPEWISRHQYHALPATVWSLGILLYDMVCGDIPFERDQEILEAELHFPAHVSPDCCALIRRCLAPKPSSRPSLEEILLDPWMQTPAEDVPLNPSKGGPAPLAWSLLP
IC50 (BxPC3; [2]),IC50 (recombinant PIM-1),IC50 (MV-4-11),IC50 (K-562),IC50 (recombinant human CK2; Table 5),IC50 (MDAMB453; [4]),IC50 (recombinant human PIM2),IC50 (BxPC3; [5]),IC50 (recombinant human CK2; Table 6),IC50 (MDAMB453; [7]),inhibition at 2.5 µM (recombinant human PIM2),IC50 [1],SMILES,IC50 (SUM-149PT; [3]),IC50 (SUM-149PT; [6])
25.8 µM,< 0.05 µM,3.75 µM,6.54 µM,0.05 µM,15.5 µM,0.05 µM,,,,,,Cc1ccc(-c2cncc(N3CCCN(C)CC3)n2)cc1/C=C1\SC(=O)NC1=O,8.7 µM,
> 30 µM,< 0.05 µM,9.35 µM,> 10 µM,0.0106 µM,28.3 µM,< 0.05 µM,,,,,,CN1CCCN(c2cncc(-c3cncc(/C=C4\SC(=O)NC4=O)c3)n2)CC1,> 30 µM,
,,,,,,,16.7 µM,0.024 µM,19.2 µM,99.4%,,C[C@H](Nc1cncc(-c2csc(/C=C3\SC(=O)NC3=O)c2)n1)C1CC1,,8.72 µM
12.7 µM,,0.374 µM,0.316 µM,< 0.05 µM,0.318 µM,< 0.05 µM,,,,,,CC(C)(C)C(=O)N1CCCN(c2cncc(-c3cc(/C=C4/SC(=O)NC4=O)ccc3F)n2)CC1,1.02 µM,
18.9 µM,,2.52 µM,3.65 µM,< 0.05 µM,3.59 µM,< 0.05 µM,,,,,,COC(=O)N1CCCN(c2cncc(-c3cc(/C=C4/SC(=O)NC4=O)ccc3F)n2)CC1,2.05 µM,
,,,,,,,,,,,> 10 µM,O=C(O)c1cccc(-c2ccc(/C=C3\SC(=S)N(Cc4ccccc4)C3=O)o2)c1,,
10.2 µM,,3.23 µM,1.21 µM,< 0.05 µM,2.76 µM,< 0.05 µM,,,,,,CC(C)(C)CC(=O)N1CCCN(c2cncc(-c3cc(/C=C4/SC(=O)NC4=O)ccc3F)n2)CC1,1.46 µM,
24 µM,,6.3 µM,9.37 µM,< 0.05 µM,3.81 µM,< 0.05 µM,,,,,,O=C1NC(=O)/C(=C\c2ccc(F)c(-c3cncc(N4CCCN(C(=O)Oc5ccccc5)CC4)n3)c2)S1,6.69 µM,
24.9 µM,,3.49 µM,2.57 µM,< 0.05 µM,3.98 µM,< 0.05 µM,,,,,,O=C1NC(=O)/C(=C\c2ccc(F)c(-c3cncc(N4CCCN(C(=O)OCc5ccccc5)CC4)n3)c2)S1,8.28 µM,
6.71 µM,< 0.05 µM,0.197 µM,0.267 µM,< 0.05 µM,1.18 µM,< 0.05 µM,,,,,,CN1CCCN(c2cncc(-c3cc(/C=C4\SC(=O)NC4=O)ccc3F)n2)CC1,1.55 µM,
,,,,,,,> 30 µM,0.00439 µM,27.7 µM,99.9%,,O=C1NC(=O)/C(=C/c2cc(-c3cncc(N4CCCNCC4)n3)cs2)S1,,25.2 µM
18.8 µM,,> 10 µM,4.3 µM,< 0.05 µM,10 µM,< 0.05 µM,,,,,,O=C1NC(=O)/C(=C\c2ccc(F)c(-c3cncc(N4CCCN(C(=O)Nc5ccccc5)CC4)n3)c2)S1,6.15 µM,
22.7 µM,,3.88 µM,3.58 µM,< 0.05 µM,10.9 µM,< 0.05 µM,,,,,,CCOC(=O)N1CCCN(c2cncc(-c3cc(/C=C4/SC(=O)NC4=O)ccc3F)n2)CC1,4.18 µM,
> 30 µM,< 0.05 µM,3.01 µM,> 30 µM,0.0921 µM,18.4 µM,< 0.05 µM,,,,,,CN1CCCN(c2cncc(-c3cc(/C=C4\SC(=O)NC4=O)ccc3Cl)n2)CC1,> 30 µM,
,,7.7 µM,,< 0.05 µM,6.28 µM,< 0.05 µM,,,,,,CC(C)NC(=O)N1CCCN(c2cncc(-c3cc(/C=C4/SC(=O)NC4=O)ccc3F)n2)CC1,1.56 µM,
4.36 µM,< 0.05 µM,1.02 µM,2.91 µM,< 0.05 µM,1.24 µM,< 0.05 µM,,,,,,O=C1NC(=O)/C(=C\c2ccc(F)c(-c3cncc(N4CCCNCC4)n3)c2)S1,2.35 µM,
20 µM,,3.11 µM,1.6 µM,< 0.05 µM,2.69 µM,< 0.05 µM,,,,,,O=C1NC(=O)/C(=C\c2ccc(F)c(-c3cncc(N4CCCN(C(=O)c5ccccc5F)CC4)n3)c2)S1,2.61 µM,
23.1 µM,,2.78 µM,0.321 µM,< 0.05 µM,4.09 µM,< 0.05 µM,,,,,,O=C1NC(=O)/C(=C\c2ccc(F)c(-c3cncc(N4CCCN(C(=O)C5CC5)CC4)n3)c2)S1,3.94 µM,
,,,,,,,17.2 µM,0.00144 µM,7.21 µM,99.9%,,C[C@H](Nc1cncc(-c2cccc(/C=C3\SC(=O)NC3=O)c2)n1)C1CC1,,0.703 µM
,,,,,,,,,,,> 10 µM,CN1C(=O)/C(=C/c2ccc(-c3cccc(C(=O)O)c3)o2)SC1=S,,
16.3 µM,< 0.05 µM,2.2 µM,9.7 µM,< 0.05 µM,22.2 µM,< 0.05 µM,,,,,,Cc1ccc(-c2cncc(N3CCCN(C)CC3)n2)cc1/C=C1\SC(=S)NC1=O,25.7 µM,
2.38 µM,< 0.05 µM,0.163 µM,0.186 µM,< 0.05 µM,0.521 µM,0.05 µM,,,,,,CN1CCCN(c2cncc(-c3cc(/C=C4\SC(=S)NC4=O)ccc3F)n2)CC1,0.315 µM,

# From patent US20100331315A1, “RHODANINES AND RELATED HETEROCYCLES AS KINASE INHIBITORS” (priority 2009, published 2010)
